The results in this text go back to patent US20220259235A1, “EGFR Inhibitor, Composition, and Preparation Method Therefor” (BETTA PHARMACEUTICALS CO., LTD, priority 2019, published 2022).

For one data set, the target named is Ba/F3-Δ19del/T790M/C797S (Homo sapiens, UniProt P00533, T790M/C797S, cells depend on it, form not given). Put plainly: Ba/F3-Δ19del/T790M/C797S cell proliferation assay (CellTiter Glo, 72 h). Format: cell-based. To be noted: CTG, numeric values, read-out: BaF3 Δ19del/T790M/C797S IC50. Summed up: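 Cells seeded at 2000/well and exposed 72 h to compound at 1000 to 0.2 nM (0.1% DMSO). Viability read by CellTiter-Glo luminescence; IC50 from four-parameter nonlinear regression of signal vs. log concentration.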

A short description of data set [1]: Liver microsomal clearance test, human. Format: in vitro ADME. To be noted: Human liver microsomes, 0.5 mg/mL, NADPH. How it is done: (§1) Test 3 Liver Microsomal Clearance Test
(§2) 1. Prepare 0.5 mg/mL liver microsome diluent containing K-butter and MgCl2:
(§3) 2.1 Take 356 μL of the liver microsome diluent prepared above and add it to the preset wells of the incubation plate, the number of multiple wells n=1, mark it as the incubation plate.
(§4) 2.2 Take 4 μL of the positive control compound Verapamil (50 μM) and the working solution of the test compound (200 μM) into the above incubation plate containing 356 μL of liver microsome diluent, and mix well (The dilution solvent from the stock solution to the working solution is a mixed solvent of acetonitrile: methanol: water=1:1:2, and the final concentration of DMSO is ≤0.5%),
(§5) 2.3 Place the incubation plate in a 37° C. thermostatic oscillator (at shaking speed of 100 rpm) for pre-incubation with 10 min.
(§6) 2.4 Add 40 μL of 10 mM NADPH (add 40 μL of K-buffer to the wells without NADPH) to each reaction well to start the reaction and start timing.
(§7) 3. Sample collection and treatment:
(§8) 3.1 After adding NADPH to start the reaction, immediately take out 50 μL of the sample and add it to the precipitation plate pre-added with 400 μL of stop solution, and shake on an oscillator at 600 rpm for 5 min at room temperature as a 0 min sample.
(§9) 3.2 At the predetermined time points of 5 min, 15 min and 45 min, take out 50 μL of sample from the incubation plate and add it to the precipitation plate. The subsequent steps were the same as the treatment of 0 min sample. 3.3 After balancing, centrifuge above precipitation plate at 3200 rpm for 10 min at 4° C.
(§10) 3.4 Take 50 μL of the supernatant after centrifugation and add it to pre-added 20% acetonitrile water at appropriate proportion, shake on an oscillator at 600 rpm for 2 min at room temperature, mix well, and put it into the LC-MS/MS sampler for sample injection.
(§11) Analysis of Experimental Data
1. […]
On the technique in general: Liver microsomes are vesicles of endoplasmic reticulum, rich in cytochrome P450 enzymes.

Data set [2] is described as follows: Liver microsomal clearance test, monkey. Format: in vitro ADME. To be noted: Monkey liver microsomes, 0.5 mg/mL, NADPH. How it is done:
as §1, §2, §3, §4, §5, §6, §7, §8, §9, §10, §11
1. […]

Sequence of Ba/F3-Δ19del/T790M/C797S (P00533 with tags, fused parts or gaps DEL746-750/T790M/C797S, form open): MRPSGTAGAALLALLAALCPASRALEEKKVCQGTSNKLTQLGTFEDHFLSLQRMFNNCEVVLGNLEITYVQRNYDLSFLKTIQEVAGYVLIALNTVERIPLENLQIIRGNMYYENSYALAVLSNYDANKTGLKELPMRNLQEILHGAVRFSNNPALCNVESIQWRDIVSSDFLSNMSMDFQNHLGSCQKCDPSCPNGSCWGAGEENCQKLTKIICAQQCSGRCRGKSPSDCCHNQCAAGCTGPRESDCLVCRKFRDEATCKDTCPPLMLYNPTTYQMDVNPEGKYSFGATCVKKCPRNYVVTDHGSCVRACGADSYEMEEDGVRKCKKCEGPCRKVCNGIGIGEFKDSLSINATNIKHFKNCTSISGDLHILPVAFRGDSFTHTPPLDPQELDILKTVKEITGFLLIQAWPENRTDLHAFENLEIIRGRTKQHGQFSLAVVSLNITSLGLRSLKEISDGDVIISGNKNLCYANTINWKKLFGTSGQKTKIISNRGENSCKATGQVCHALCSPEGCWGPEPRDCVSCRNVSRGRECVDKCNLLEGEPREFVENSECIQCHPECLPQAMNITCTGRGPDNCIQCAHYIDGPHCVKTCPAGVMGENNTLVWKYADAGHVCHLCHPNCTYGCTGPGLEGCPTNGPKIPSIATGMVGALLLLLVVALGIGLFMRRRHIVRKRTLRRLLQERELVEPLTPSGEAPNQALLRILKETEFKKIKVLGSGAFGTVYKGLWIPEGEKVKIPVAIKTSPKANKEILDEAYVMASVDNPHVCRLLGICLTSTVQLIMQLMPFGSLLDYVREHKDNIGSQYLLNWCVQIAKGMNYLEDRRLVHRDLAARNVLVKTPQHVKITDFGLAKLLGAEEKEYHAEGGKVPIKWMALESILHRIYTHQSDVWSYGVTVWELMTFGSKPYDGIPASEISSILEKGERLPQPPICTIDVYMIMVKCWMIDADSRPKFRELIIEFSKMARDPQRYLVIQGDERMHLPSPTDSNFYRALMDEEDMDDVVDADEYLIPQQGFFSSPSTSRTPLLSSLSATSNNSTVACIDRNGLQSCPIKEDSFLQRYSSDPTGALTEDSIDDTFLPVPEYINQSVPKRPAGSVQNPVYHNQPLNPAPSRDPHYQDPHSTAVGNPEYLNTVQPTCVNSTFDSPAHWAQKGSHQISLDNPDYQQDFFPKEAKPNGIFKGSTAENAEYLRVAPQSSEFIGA

Regarding `COc1cc(N2CCC(N3CCN(C)CC3)CC2)c(-c2cnn(C)c2)cc1Nc1ncc(Cl)c(Nc2ccc3nccnc3c2P(C)(C)=O)n1` [Compound 1, (6-((5-Chloro-2-((2-methoxy-5-(1-methyl-1hydro-pyrazol-4-yl)-4-(4-(4-methylpiperazine-1-yl)piperidin-1-yl)phenyl)amino)pyrimidin-4-yl)amino)quinoxalin-5-yl)dimethylphosphine oxide], the GI50 at Ba/F3-Δ19del/T790M/C797S was determined as 2.1 nM. The “Instrinsic clearance of liver microsomal protein, CLint” value stood at 2.4 μL/min/mg proteins in data set [1] and 38.8 μL/min/mg proteins in data set [2].
